Assay results: patent publication US20200261440A1, “ZINC IONOPHORES AND USES THEREOF” (THE UNIVERSITY OF QUEENSLAND, priority 2017, published 2020)
Like-named read-outs stand apart in the source and are kept apart here. Marks after values point to notes of the source that are not given here.

Tests used:
[1] = system: GAS strain HKU16 (Streptococcus pyogenes strain HKU16); test: microbe, parasite or virus in culture; assay type: cell-based
Protocol: (§1) J. Path. Bact. […] Proc. Soc.
(§2) MIC assays were carried out in biological triplicates.
(§3) M100 Performance Standards for Antimicrobial Susceptibility Testing, 27th Edition.

[2] = system: Vancomycin-resistant Enterococci (VRE) clinical isolate RBWH1; test: MIC by broth microdilution (CLSI); assay type: cell-based, Enterococcus; conditions: for antibiotic sensitivity of resistant strain: addition of sub-inhibitory PBT2+zinc(II) ions
Protocol: as §1, §2, §3

GAS = test: Drop test assay, growth on THY agar; assay type: cell-based, Streptococcus pyogenes; conditions: PBT2 (1.5 μM), zinc(II) ions (400 μM)
Protocol: (§4) FIG. 1a illustrates growth of GAS, MRSA and VRE on THY agar in the presence or absence of PBT2 (1.5 μM) and zinc(II) ions (400 μM).
(§5) Bacteria were diluted from overnight cultures to get a starting OD600 of 0.01 in THY. Once the bacteria grew to an OD600 of 0.6, the culture were serially diluted in PBS and 5 μL of each dilution (undiluted, 10^−1, 10^−2, 10^−3, 10^−4, 10^−5) was plated on THY agar plates with or without zinc (400 μM) and/or PBT2 ([…]). Plates were incubated at 37° C. overnight. Drop tests were undertaken in biological triplicates.

MRSA = test: Drop test assay, growth on THY agar; assay type: cell-based, Staphylococcus aureus; conditions: PBT2 (1.5 μM), zinc(II) ions (400 μM)
Protocol: as §4, §5

VRE [3] = test: Drop test assay, growth on THY agar; assay type: cell-based, Enterococcus; conditions: PBT2 (1.5 μM), zinc(II) ions (400 μM)
Protocol: as §4, §5

[4] = humans; up to 250 mg/day (oral) for 12 weeks; cited from earlier work
[5] = system: Methicillin-resistant Staphylococcus aureus (MRSA) strain USA300; test: MIC by broth microdilution (CLSI)
Protocol: GAS HKU16, MRSA USA300, VRE RBWH1, Klebsiella pneumoniae strain MS6771, E. coli strain MS8345 and Streptococcus pneumoniae strain 23F were grown in Todd-Hewitt broth (THB) or agar with 1% yeast extract (THY) [Todd, E. W. & Hewitt, L. F. A new culture medium for the production of antigenic streptococcal haemolysin. […] Bacteria were routinely grown at 37° C. in ambient air.
MICs were determined by broth microdilution in accordance to CLSI guidelines (“Methods for Dilution Antimicrobial Susceptibility Tests for Bacteria That Grow Aerobically”, Clinical and Laboratory Standards Institute) [Clinical and Laboratory Standards Institute. […] For MRSA, VRE, Klebsiella pneumoniae and E. coli the assays were performed in MHB, and for GAS and Streptococcus pneumoniae MHB+2.5% lysed horse blood (LHB) was used. The bacterial inoculum was prepared by direct colony suspension aiming for 2-8×10^5 colony forming units (CFU)/mL bacteria per well. Antibiotics/compounds were serially diluted two-fold across the 96-well plate, the last column contained no antibiotics/compounds. The inoculum was added to the plate containing antibiotic/compound and incubated for 16-24 h at 35+/−2° C. […] MIC assays were carried out in biological triplicates.
Using Clinical and Laboratory Standards Institute guidelines for antimicrobial sensitivity testing [Clinical and Laboratory Standards Institute.

[6] = system: Klebsiella pneumoniae strain MS6771; test: MIC by broth microdilution (CLSI); assay type: cell-based
VRE [7] = test: Murine wound infection model; assay type: in vivo, BALB/c mice; conditions: 4 days
Description: For wound infection, 4-7 week old female BALB/c mice were used and housed in individual cages [Pandey, M. et al. A synthetic M protein peptide synergizes with a CXC chemokine protease to induce vaccine-mediated protection against virulent streptococcal pyoderma and bacteremia. J Immunol 194, 5915-5925, doi:10.4049/jimmunol.1500157 (2015)]. The neck area of the mice was shaved and residual hair removed using Nair (Church & Dwight) prior to the experiment. On the day of infection, mice were anesthetized by inhalation of methoxyflurane and a small superficial scarification was made on the shaved skin using a metal file. For infection, 5×10^6-2×10^7 CFU GAS or 5×10^5-2×10^6 CFU MRSA/VRE were applied onto the scarified skin. […] Mice were treated with ointment twice daily and a total of 9 treatments were applied. […] […] After four days treatment, the mice were euthanized, the scarified skin was excised, and washed twice in PBS by vortexing for 30 seconds. […] Each treatment group contained six mice and statistical significance was calculated using an unpaired t-test (non-parametric).

[8] = system: MCR-1 E. coli strain MS8345; test: MIC by broth microdilution (CLSI); assay type: cell-based, Escherichia coli; conditions: for antibiotic sensitivity of resistant strain: MCR1-positive E. coli MS8345; for MIC: MCR-1 E. coli
Protocol: as §1
J Infect Dis. 1995 171:890-6). E. coli strain MS8345 is a MCR-1 resistant clinical isolate supplied by Prof. D. L. Paterson, University of Queensland Centre for Clinical Research.
(§6) (2017)]. […] MIC assays were carried out in biological triplicates.

A. baumannii strain 42-A = test: MIC by broth microdilution (CLSI); assay type: cell-based, Acinetobacter baumannii; conditions: Untreated
Protocol: (§7) They were obtained from Jan Bell, Australian Centre of Microbial Resistance Ecology (ACARE), University of Adelaide, Australia.
as §6

[9] = system: P. aeruginosa strain 253-43-C; test: MIC by broth microdilution (CLSI); assay type: cell-based, Pseudomonas aeruginosa
Protocol: as §7, §6

[10] = K. pneumoniae, RA-HQ-12: 16 μM, Zn: 64 μM
[11] = MRSA, RA-HQ-12: 3.5 μM, Zn: […], oxacillin with 2% NaCl
[12] = MRSA, RA-HQ-12: 3.5 μM, oxacillin with 2% NaCl

## CN(C)Cc1ccc2c(Cl)cc(Cl)c(O)c2n1 [PBT2, 5,7-dichloro-2-[(dimethylamino)methyl]-8-quinolinol]
[1]; Streptococcus pyogenes, GAS HKU 16, substance alone, read-out: MIC
  MIC: > 30 µM
[2]; Enterococcus, VRE RBWH1, substance alone, read-out: MIC
  MIC: 1.9 µM
GAS
  antibacterial activity: neither PBT2 nor zinc(II) ions (in the form of zinc chloride) displayed antibacterial activity
MRSA
  antibacterial activity: neither PBT2 nor zinc(II) ions (in the form of zinc chloride) displayed antibacterial activity
VRE [3]
  antibacterial activity: neither PBT2 nor zinc(II) ions (in the form of zinc chloride) displayed antibacterial activity
[4]
  safety and tolerability: safe and well tolerated
[5]; Staphylococcus aureus, MRSA USA300, substance alone
  MIC: 3.75 µM

## CN[C@H](CC(C)C)C(=O)N[C@H]1C(=O)N[C@@H](CC(N)=O)C(=O)N[C@H]2C(=O)N[C@H]3C(=O)N[C@H](C(=O)N[C@H](C(=O)O)c4cc(O)cc(O)c4-c4cc3ccc4O)[C@H](O)c3ccc(c(Cl)c3)Oc3cc2cc(c3O[C@@H]2O[C@H](CO)[C@@H](O)[C@H](O)[C@H]2O[C@H]2C[C@](C)(N)[C@H](O)[C@H](C)O2)Oc2ccc(cc2Cl)[C@H]1O [Vancomycin, vancomycin]
[1]; Streptococcus pyogenes, GAS, RA-HQ-12: 3.5 μM
  MIC: 0.5 mg/L
[1]; Streptococcus pyogenes, GAS, RA-HQ-12: 3.5 μM, Zn: […]
  MIC: 0.25 mg/L
[1]; Streptococcus pyogenes, GAS, Zn: […] (RA-HQ-12 panel)
  MIC: 0.5 mg/L
[1]; Streptococcus pyogenes, GAS, RA-HQ-12: 0 μM, Zn: 0 μM
  MIC: 0.5 mg/L
[2]; Enterococcus, VRE, VRE RBWH1, CQ: 0 μM, Zinc: 0 μM
  MIC: > 128 mg/L
[2]; Enterococcus, VRE, VRE RBWH1, CQ: 2.5 μM
  MIC: > 128 mg/L
[2]; Enterococcus, VRE, VRE RBWH1, CQ: 2.5 μM, Zinc: 32 μM
  MIC: 1 mg/L
[2]; Enterococcus, VRE, VRE RBWH1, PBT2: 0 μM, Zinc: 0 μM
  MIC: > 128 mg/L
[2]; Enterococcus, VRE, VRE RBWH1, PBT2: 1.75 μM
  MIC: > 128 mg/L
[2]; Enterococcus, VRE, VRE RBWH1, PBT2: 1.75 μM, Zinc: […]
  MIC: 1 to 2 mg/L
[2]; Enterococcus, VRE, VRE RBWH1, Zinc: 32 μM
  MIC: > 128 mg/L
[2]; Enterococcus, VRE, VRE RBWH1, Zinc: […] (PBT2 panel)
  MIC: > 128 mg/L
[2]; Enterococcus, VRE, RA-HQ-12: 0 μM, Zn: 0 μM
  MIC: > 128 mg/L
[2]; Enterococcus, VRE, RA-HQ-12: 3.5 μM
  MIC: > 128 mg/L
[2]; Enterococcus, VRE, RA-HQ-12: 3.5 μM, Zn: […]
  MIC: > 128 mg/L
[2]; Enterococcus, VRE, Zn: […] (RA-HQ-12 panel)
  MIC: > 128 mg/L
[2]; VRE RBWH1
  antibiotic sensitivity of resistant strain: became sensitive
[6]; K. pneumoniae, RA-HQ-12: 16 μM
  MIC: >128 µg/mL
[6]; [10]
  MIC: >128 µg/mL
[6]; K. pneumoniae, Zn: 64 μM
  MIC: >128 µg/mL
[6]; Klebsiella pneumoniae, MS6771
  MIC: > 128 µg/mL
VRE [7]; 1.5% vancomycin in combination with 2 mM PBT2 + 25 mM ZnSO4, ointment twice daily
  bacterial burden at the site of infection (CFUs): significantly reducing infection
VRE [7]; treatment alone: 2 mM PBT2 + 25 mM ZnSO4, or 1.5% vancomycin, ointment twice daily
  bacterial burden at the site of infection (CFUs): Neither antibiotic nor sub-inhibitory concentrations of PBT2+zinc(II) ions alone reduced bacterial burden
[5]; [11]
  MIC: 1 mg/L
[5]; [12]
  MIC: 1 mg/L
[5]; Staphylococcus aureus
  MIC: 1 mg/L

## colistin
[1]; GAS HKU16, RA-HQ-12+zinc(II) ions (ZnSO4)
  antibiotic resensitization: resensitize
[1]; GAS HKU16, addition of sub-inhibitory PBT2+zinc(II) ions
  antibiotic sensitivity of resistant strain: became sensitive
[1]; GAS, RA-HQ-12: 3.5 μM, Zn: […]
  MIC: 2-4^# μg/mL
[1]; Streptococcus pyogenes HKU16, CQ: 6 μM
  MIC: 64 mg/L
[1]; Streptococcus pyogenes HKU16, CQ: 6 μM, Zinc: 80 μM
  MIC: 1 mg/L
[1]; Streptococcus pyogenes HKU16, PBT2: 4.75 μM
  MIC: 32 mg/L
[1]; Streptococcus pyogenes HKU16, PBT2: 4.75 μM, Zinc: […]
  MIC: 0.5-1^ μg/mL
[2]; VRE RBWH1, CQ: 2.5 μM, Zinc: 32 μM
  MIC: 0.5 to 1 mg/L
[2]; VRE RBWH1, PBT2: 1.75 μM, Zinc: […]
  MIC: 0.5 mg/L
[2]; VRE RBWH1, RA-HQ-12+zinc(II) ions (ZnSO4)
  antibiotic resensitization: resensitize
[2]; VRE RBWH1
  antibiotic sensitivity of resistant strain: became sensitive
[2]; VRE, RA-HQ-12: 3.5 μM
  MIC: 32 mg/L
[2]; VRE, RA-HQ-12: 3.5 μM, Zn: […]
  MIC: 2-4^# μg/mL
[6]; K. pneumoniae, RA-HQ-12: 0 μM, Zn: 0 μM
  MIC: 64 µg/mL
[6]; K. pneumoniae, RA-HQ-12: 16 μM
  MIC: 32 µg/mL
[6]; [10]
  MIC: 4^# μg/mL
[6]; K. pneumoniae, Zn: 64 μM
  MIC: 64 µg/mL
[6]; Klebsiella pneumoniae MS6771, RA-HQ-12+zinc(II) ions (ZnSO4)
  antibiotic resensitization: resensitize
[6]; Klebsiella pneumoniae MS6771, addition of sub-inhibitory PBT2+zinc(II) ions
  antibiotic sensitivity of resistant strain: became sensitive
[6]; Klebsiella pneumoniae MS6771, combination with PBT2, no zinc
  antibiotic sensitivity of resistant strain: resulted in sensitivity
[6]; Klebsiella pneumoniae, CQ: 0 μM, Zinc: 0 μM
  MIC: 64 µg/mL
[6]; Klebsiella pneumoniae, CQ: 64 μM
  MIC: 0.5 µg/mL
[6]; Klebsiella pneumoniae, CQ: 64 μM, Zinc: 256 μM
  MIC: 0.5 µg/mL
[6]; Klebsiella pneumoniae, PBT2: 0 μM, Zinc: 0 μM
  MIC: 32 to 64 µg/mL
[6]; Klebsiella pneumoniae, Zinc: 256 μM (CQ panel)
  MIC: 32 to 64 µg/mL
[6]; Klebsiella pneumoniae, Zinc: 256 μM (PBT2 panel)
  MIC: 32 to 64 µg/mL
[8]; addition of sub-inhibitory PBT2+zinc(II) ions
  antibiotic sensitivity of resistant strain: became sensitive
[8]; combination with PBT2, no zinc
  antibiotic sensitivity of resistant strain: resulted in sensitivity
[8]; CQ: 0 μM, Zinc: 0 μM
  MIC: 8 mg/L
[8]; CQ: 5 μM
  MIC: 2 mg/L
[8]; CQ: 5 μM, Zinc: 25 μM
  MIC: 0.5 to 1 mg/L
[8]; PBT2: 0 μM, Zinc: 0 μM
  MIC: 8 mg/L
[8]; PBT2: 7 μM
  MIC: 1 mg/L
[8]; PBT2: 7 μM, Zinc: 200 μM
  MIC: 0.25 mg/L
[8]; Zinc: 25 μM
  MIC: 8 mg/L
[8]; Zinc: 200 μM
  MIC: 8 mg/L
A. baumannii strain 42-A
  MIC: >64 mg/L
[9]; PBT2
  MIC: 1 mg/L
[9]; Untreated
  MIC: 8 mg/L
[5]; MRSA USA300, CQ: 1 μM, Zinc: 32 μM
  MIC: 2 mg/L
[5]; MRSA USA300, PBT2: 2 μM, Zinc: 50 μM
  MIC: 2 mg/L
[5]; MRSA USA 300, RA-HQ-12+zinc(II) ions (ZnSO4)
  antibiotic resensitization: resensitize
[5]; MRSA USA300, addition of sub-inhibitory PBT2+zinc(II) ions
  antibiotic sensitivity of resistant strain: became sensitive
[5]; [11]
  MIC: 8 mg/L
[5]; [12]
  MIC: 64 mg/L
